Data taken from patent US8871756B2 (Hoffmann-La Roche Inc., priority 2011, dated 2014).

system: RSV Long strain; assay: Viral cytopathic effect (CPE) assay, anti-RSV activity; assay type: cell-based, Respiratory Syncytial Virus; details: RSV Long strain (ATCC); cell viability after 6 days, Cell Counting kit-8
Procedure, shortened: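 Cells (6×10^3/well, DMEM with 10% FBS) were infected next day with RSV Long strain, at a dose giving approximately 80–90% CPE, alongside serial half-log compound dilutions. Viability was read after 6 days by CCK-8 absorbance at 450 nm (reference 630 nm), and EC50 was derived from it.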

| SMILES | EC50 |
| --- | --- |
| Cc1ccc2nc(N3CC[S+]([O-])c4ccccc4C3)cc(NCC3(N)COC3)c2c1 (stereo not shown) [Example 18-1, N-[(3-Aminooxetan-3-yl)methyl]-6-methyl-2-(1-oxido-2,3-dihydro-1,4-benzothiazepin-4(5H)-yl)quinolin-4-amine] | 0.003 µM |

same assay, conditions: human respiratory syncytial virus, 144 h, RSV Long strain (ATCC); cell viability after 6 days, Cell Counting kit-8

| SMILES | EC50 |
| --- | --- |
| N#Cc1ccc2nc(N3CCS(=O)(=O)c4ccccc4C3)cc(NCCCN)c2c1 [Example 52, 4-[(3-Aminopropyl)amino]-2-(1,1-dioxido-2,3-dihydro-1,4-benzothiazepin-4(5H)-yl)quinoline-6-carbonitrile] | 0.419 µM |
| Cc1ccc2c(c1)S(=O)(=O)CCN(c1cc(NCC3(N)COC3)c3ccccc3n1)C2 [Example 2-4, N-[(3-Aminooxetan-3-yl)methyl]-2-(8-methyl-1,1-dioxido-2,3-dihydro-1,4-benzothiazepin-4(5H)-yl)-quinolin-4-amine] | 0.081 µM |
| Cc1ccc2nc(N3CCS(=O)(=O)c4ccccc4C3)cc(NCCSCCN)c2c1 [Example 8-7, N-{2-[(2-Aminoethyl)sulfanyl]ethyl}-2-(1,1-dioxido-2,3-dihydro-1,4-benzothiazepin-4(5H)-yl)-6-methylquinolin-4-amine] | 0.322 µM |
| NCCNc1cc(N2CCCc3ccccc3C2)nc2ccc(OC(F)(F)F)cc12 [Example 118-23, N-[2-(1,3,4,5-Tetrahydro-2H-2-benzazepin-2-yl)-6-(trifluoromethoxy)quinolin-4-yl]ethane-1,2-diamine] | 2.64 µM |
| O=S1(=O)CCN(c2cc(NCC(O)CO)c3cc(Cl)ccc3n2)Cc2ccccc21 (stereo not shown) [Example 32-2, 3-{[6-Chloro-2-(1,1-dioxido-2,3-dihydro-1,4-benzothiazepin-4(5H)-yl)quinolin-4-yl]amino}propane-1,2-diol] | 2.45 µM |
| Cc1ccc2nc(N3CCS(=O)(=O)c4ccccc4C3)cc(NC3CCNCC3)c2c1 [Example 3-39, 2-(1,1-Dioxido-2,3-dihydro-1,4-benzothiazepin-4(5H)-yl)-6-methyl-N-(piperidin-4-yl)quinolin-4-amine] | 0.03 µM |
| Cc1ccc2nc(N3CCC(F)(F)c4ccccc4C3)cc(NC3CCNC3)c2c1 (stereo not shown) [Example 110-10] | 0.099 µM |
| Cc1ccc2nc(N3CCS(=O)(=O)c4ccccc4C3)cc(N3CC(N)C4(COC4)C3)c2c1 (stereo not shown) [Example 23, 6-[2-(1,1-Dioxido-2,3-dihydro-1,4-benzothiazepin-4(5 H)-yl)-6-methylquinolin-4-yl]-2-oxa-6-azaspiro[3.4]octan-8-amine] | 5.19 µM |
| Cc1ccc2nc(N3CCS(=O)(=O)c4ccccc4C3)cc(NC(=O)CCN)c2c1 [Example 42-2, N-[2-(1,1-Dioxido-2,3-dihydro-1,4-benzothiazepin-4(5H)-yl)-6-methylquinolin-4-yl]-beta-alaninamide] | 0.037 µM |
| Cc1ccc2nc(N3CCS(=O)(=O)c4ccccc4C3)cc(NCC(O)CC(=O)O)c2c1 (stereo not shown) [Example 11-3, 4-{[2-(1,1-Dioxido-2,3-dihydro-1,4-benzothiazepin-4(5H)-yl)-6-methylquinolin-4-yl]amino}-3-hydroxybutanoic acid] | 0.922 µM |
| Cc1ccc2nc(N3CCS(=O)(=O)c4ccccc4C3)cc(NCC(C)(O)CO)c2c1 (stereo not shown) [Example 67, 3-{[2-(1,1-Dioxido-2,3-dihydro-1,4-benzothiazepin-4(5H)-yl)-6-methylquinolin-4-yl]amino}-2-methylpropane-1,2-diol] | 0.585 µM |
| Cc1ccc2nc(N3CCS(=O)(=O)c4ccccc4C3)cc(N[C@@H](C)C(=O)O)c2c1 [Example 14-1, N-[2-(1,1-Dioxido-2,3-dihydro-1,4-benzothiazepin-4(5H)-yl)-6-methylquinolin-4-yl]-L-alanine] | 2.19 µM |
| CC(=O)NCC1(CNc2cc(N3CCS(=O)(=O)c4ccccc4C3)nc3ccc(C)cc23)COC1 [Example 63-2, N-{[3-({[2-(1,1-D ioxido-2,3-dihydro-1,4-benzothiazepin-4(5H)-yl)-6-methylquinolin-4-yl]amino}methyl)oxetan-3-yl]methyl}acetamide] | 2.02 µM |
| NCCNc1cc(N2CCCc3ccccc3C2)nc2ccc(OC(F)F)cc12 [Example 118-18, N-[6-(Difluoromethoxy)-2-(1,3,4,5-tetrahydro-2H-2-benzazepin-2-yl)quinolin-4-yl]ethane-1,2-diamine] | 0.973 µM |

Now from value to compound:

| EC50 | SMILES |
| --- | --- |
| 0.026 µM | Cc1ccc2nc(N3CCS(=O)(=O)c4ccccc4C3)cc(N3C[C@@H](O)[C@@H](N)C3)c2c1 (relative stereo) [Example 13, cis-4-amino-1-[2-(1,1-Dioxido-2,3-dihydro-1,4-benzothiazepin-4(5H)-yl)-6-methylquinolin-4-yl]pyrrolidin-3-ol] |
| 0.021 µM | Cc1cc2c(NCC3(N)COC3)cc(N3CCS(=O)(=O)c4ccccc4C3)nc2cc1F [Example 3-24, N-[(3-Aminooxetan-3-yl)methyl]-2-(1,1-dioxido-2,3-dihydro-1,4-benzothiazepin-4(5H)-yl)-7-fluoro-6-methylquinolin-4-amine] |
| 0.021 µM | Cc1ccc2nc(N3CCS(=O)(=O)c4ccccc4C3)cc(NCCCNC3COC3)c2c1 [Example 45-1, N-[2-(1,1-Dioxido-2,3-dihydro-1,4-benzothiazepin-4(5H)-yl)-6-methylquinolin-4-yl]-N′-(oxetan-3-yl)propane-1,3-diamine] |
| 0.018 µM | Cc1ccc2nc(N3CCS(=O)(=O)c4ccccc4C3)nc(NCC(C)(C)N)c2c1 [Example 60, N^˜1^˜-[2-(1,1-Dioxido-2,3-dihydro-1,4-benzothiazepin-4(5H)-yl)-6-methylquinazolin-4-yl]-2-methylpropane-1,2-diamine] |
| 0.007 µM | Cc1ccc2nc(N3CC[S+]([O-])c4ccccc4C3)nc(NCC3(N)COC3)c2c1 (stereo not shown) [Example 55-1, N-[(3-Aminooxetan-3-yl)methyl]-6-methyl-2-(1-oxido-2,3-dihydro-1,4-benzothiazepin-4(5H)-yl)quinazolin-4-amine] |
| 0.005 µM | Cc1ccc2nc(N3CCS(=O)(=O)c4ccccc4C3)cc(NC[C@H](N)CO)c2c1 [Example 37-1, (2S)-2-Amino-3-{[2-(1,1-dioxido-2,3-dihydro-1,4-benzothiazepin-4(5H)-yl)-6-methylquinolin-4-yl]amino}propan-1-ol] |
| 0.004 µM | NCC1(CNc2cc(N3CCS(=O)(=O)c4ccccc4C3)nc3ccc(Cl)cc23)COC1 [Example 3-51, N-{[3-(Aminomethyl)oxetan-3-yl]methyl}-6-chloro-2-(1,1-dioxido-2,3-dihydro-1,4-benzothiazepin-4(5H)-yl)quinolin-4-amine] |
| 0.004 µM | COc1ccc2c(c1)CN(c1cc(NCC3(N)COC3)c3cc(C)ccc3n1)CCS2(=O)=O [Example 1-5, N-[(3-Aminooxetan-3-yl)methyl]-2-(7-methoxy-1,1-dioxido-2,3-dihydro-1,4-benzothiazepin-4(5H)-yl)-6-methylquinolin-4-amine] |
| 0.002 µM | Cc1ccc2c(c1)S(=O)(=O)CCN(c1cc(NCC3(CN)COC3)c3cc(C)ccc3n1)C2 [Example 3-8, N-{[3-(Aminomethyl)oxetan-3-yl]methyl}-6-methyl-2-(8-methyl-1,1-dioxido-2,3-dihydro-1,4-benzothiazepin-4(5H)-yl)quinolin-4-amine] |
| 0.0007 µM | Cc1ccc2nc(N3CCS(=O)(=O)c4ccccc4C3)cc(NCCCCN)c2c1 [Example 9-19, N-[2-(1,1-Dioxido-2,3-dihydro-1,4-benzothiazepin-4(5 H)-yl)-6-methylquinolin-4-yl]butane-1,4-diamine] |
